Results reported in ChEMBL document CHEMBL1201862, “PubChem BioAssay data set” (2004).
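The compound was tested at five concentrations on cells cultured in 96-well plates, with a 48-hour exposure period. Here, GI50 denotes the concentration required for 50% inhibition of growth.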 Active and inactive are the calls of the source. No stated cut-off is given here; in the data, active = GI50 up to about 1.1 µM and inactive = higher.

Columns and labels:
Test in all cases: NCI-60 cell line screen, 48 h
[1] = tested on: A498
[2] = tested on: CCRF-CEM
[3] = tested on: COLO 205
[4] = tested on: DU-145
[5] = tested on: EKVX
[6] = tested on: MCF7
[7] = tested on: MDA-MB-435
[8] = tested on: NCI/ADR-RES
[9] = tested on: OVCAR-4
[10] = tested on: OVCAR-5
[11] = tested on: OVCAR-8
[12] = tested on: SF-539
[13] = tested on: SK-MEL-28
[14] = tested on: SNB-75
[15] = tested on: SW-620
[16] = tested on: TK-10
[17] = tested on: UACC-257
[18] = tested on: NCI-H23
[19] = tested on: RPMI-8226

Row | Structure (SMILES) | GI50 [1] | GI50 [2] | GI50 [3] | GI50 [4] | GI50 [5] | GI50 [6] | GI50 [7] | GI50 [8] | GI50 [9] | GI50 [10] | GI50 [11] | GI50 [12] | GI50 [13] | GI50 [14] | GI50 [15] | GI50 [16] | GI50 [17] | GI50 [18] | GI50 [19]
1 | Cc1cc2c3c(c1)S(=O)(=O)c1cc(Cl)ccc1N3CCC2 | > 100 µM (inactive) | > 100 µM (inactive) | > 100 µM (inactive) | > 100 µM (inactive) | > 100 µM (inactive) | > 100 µM (inactive) | > 100 µM (inactive) | > 100 µM (inactive) | 64.3 µM (inactive) | > 100 µM (inactive) | > 100 µM (inactive) | > 100 µM (inactive) | > 100 µM (inactive) | 58.5 µM (inactive) | > 100 µM (inactive) | > 100 µM (inactive) | 60.8 µM (inactive) | – | –
2 | CCOC(=O)c1c(N2CCN(C)CC2)[nH]c(=O)c(C(c2c(Cl)cccc2Cl)c2c(O)c(C(=O)OCC)c(N3CCN(C)CC3)[nH]c2=O)c1O | 22.1 µM (inactive) | 31 µM (inactive) | 33.1 µM (inactive) | 17.8 µM (inactive) | 14.5 µM (inactive) | 29.5 µM (inactive) | 25.8 µM (inactive) | 71.1 µM (inactive) | 21.5 µM (inactive) | 43 µM (inactive) | 22 µM (inactive) | 19.4 µM (inactive) | 17.9 µM (inactive) | – | 31.8 µM (inactive) | 30.5 µM (inactive) | 21.3 µM (inactive) | 40.3 µM (inactive) | 39.2 µM (inactive)
3 | C=C(C1=CC(=O)C(C)(C)O1)[C@@H]1CC=C([C@@H]2CC[C@H]3[C@@]2(C)CC[C@H]2C(C)(C)C(=O)[C@H](OC(=O)CC(C)(O)CC(=O)O)C[C@]32C)[C@H](O)O1 (some centres not stated) | 13 µM (inactive) | 2.19 µM (inactive) | 12.5 µM (inactive) | 16.7 µM (inactive) | 15.3 µM (inactive) | 9.84 µM (inactive) | 15.1 µM (inactive) | 19 µM (inactive) | – | 14.5 µM (inactive) | 13.4 µM (inactive) | 13 µM (inactive) | – | – | 10.7 µM (inactive) | 27.4 µM (inactive) | 15.2 µM (inactive) | 13.6 µM (inactive) | 2.48 µM (inactive)
4 | Cc1ccc(/C=C2\CN(C)CC3=C2N=C(S)NC3c2ccc(C)cc2)cc1 (configuration not stated) | > 100 µM (inactive) | 30.1 µM (inactive) | 19 µM (inactive) | 34.4 µM (inactive) | 41.8 µM (inactive) | 24.7 µM (inactive) | 8.63 µM (inactive) | 23.8 µM (inactive) | 14 µM (inactive) | > 100 µM (inactive) | 25.5 µM (inactive) | 39 µM (inactive) | > 100 µM (inactive) | 10.2 µM (inactive) | 61.2 µM (inactive) | 0.341 µM (active) | 7 µM (inactive) | 39 µM (inactive) | –
5 | O=C(O)/C(=C/C(=O)c1ccc(Cl)cc1)NNc1ccc([N+](=O)[O-])cc1[N+](=O)[O-] | > 100 µM (inactive) | 23.6 µM (inactive) | > 100 µM (inactive) | 47.2 µM (inactive) | > 100 µM (inactive) | 52.4 µM (inactive) | 67.9 µM (inactive) | 45.8 µM (inactive) | 19.7 µM (inactive) | 82.8 µM (inactive) | 29.5 µM (inactive) | 35.3 µM (inactive) | 43.5 µM (inactive) | – | – | 57.5 µM (inactive) | > 100 µM (inactive) | 44.1 µM (inactive) | 28.5 µM (inactive)
6 | COc1cc(C2S/C(=C/c3ccccc3)C(=O)N2Cc2ccccc2)cc(OC)c1OC (configuration not stated) | 45.5 µM (inactive) | 23.1 µM (inactive) | 30.1 µM (inactive) | 47 µM (inactive) | 55.6 µM (inactive) | 61.1 µM (inactive) | 25.5 µM (inactive) | 26.4 µM (inactive) | 23.2 µM (inactive) | > 100 µM (inactive) | 37.6 µM (inactive) | – | 88.9 µM (inactive) | 18.5 µM (inactive) | – | > 100 µM (inactive) | > 100 µM (inactive) | 67.3 µM (inactive) | 21.5 µM (inactive)
7 | CC12CCC(/C(=N/c3ccc([N+](=O)[O-])cc3)C1=O)C2(C)C (configuration not stated) | > 100 µM (inactive) | – | 19.4 µM (inactive) | 25.7 µM (inactive) | 20.1 µM (inactive) | > 100 µM (inactive) | 17.1 µM (inactive) | 23.3 µM (inactive) | 13.1 µM (inactive) | 51.5 µM (inactive) | 23 µM (inactive) | 18.2 µM (inactive) | 12 µM (inactive) | – | 23.3 µM (inactive) | 16.9 µM (inactive) | 32.4 µM (inactive) | 31.6 µM (inactive) | 20.1 µM (inactive)
8 | CC(=O)OC[C@@]12C[C@H]3C(=O)C(C)(C)C[C@H]3[C@]1(C)[C@@H](OC(C)=O)[C@]1(O)[C@H]([C@@H](OC(=O)c3ccccc3)[C@@H](C)[C@H]1OC(C)=O)[C@H]2OC(C)=O | > 20 µM (inactive) | 6.21 µM (inactive) | 8.71 µM (inactive) | > 20 µM (inactive) | > 20 µM (inactive) | > 20 µM (inactive) | > 20 µM (inactive) | > 20 µM (inactive) | > 20 µM (inactive) | > 20 µM (inactive) | > 20 µM (inactive) | 16.5 µM (inactive) | – | > 20 µM (inactive) | > 20 µM (inactive) | > 20 µM (inactive) | > 20 µM (inactive) | > 20 µM (inactive) | –
